From ChEMBL document CHEMBL5356971, “Optimization of the Antibacterial Spectrum and the Developability Profile of the Novel-Class Natural Product Corramycin” (J Med Chem, 2023)
≈ marks a conversion by molar mass, not a printed value. Numbered stars: 1 amine (or outer) side, 2 acyl side, 3 side chain; on linkers, the order of the positions; unused ones are H or OH. Square brackets hold non-standard residues; d marks the D form. Peptide text beside a SMILES is read from it. * marks the point of attachment. Ava(2S,3R-(OH)2,4S-OMe) = CO[C@@H](CN[*:1])[C@H](O)[C@H](O)C(=O)[*:2]; dHis(βS-OH,π-Me) = Cn1cncc1[C@@H](O)[C@@H](N)C(=O)O; Butanoyl(2R-OH,3S-OH) = C[C@H](O)[C@@H](O)C(=O)*; Val(3-OH) = CC(C)(O)[C@H](N)C(=O)O; NMeF = CN[C@@H](Cc1ccccc1)C(=O)O

What was measured:
Escherichia coli [1] = experiment: Antimicrobial activity against Escherichia coli assessed as microbial growth inhibition; assay type: functional
Klebsiella pneumoniae [2] = experiment: Antimicrobial activity against Klebsiella pneumoniae assessed as microbial growth inhibition; assay type: functional
Pseudomonas aeruginosa = experiment: Antimicrobial activity against Pseudomonas aeruginosa assessed as microbial growth inhibition; assay type: functional
Escherichia coli [3] = experiment: Antibacterial activity against Escherichia coli infected in mouse model assessed as mouse survival at 20 mg/kg iv; assay type: functional
[4] = Lipophilicity, log D of the compound at pH 7.4; assay type: physicochemical; details: buffer
[5] = Aqueous solubility of compound in PBS at pH 7.4; assay type: physicochemical
[6] = Permeability of compound in human Caco-2 cells; assay type: ADME, cell-based; details: read-out: permeability
HepG2 = experiment: Cytotoxicity against human HepG2 cells assessed as inhibition of cell growth at 30 uM incubated for 40 hrs by celltiterglo assay; assay type: functional
[7] = biological target: Voltage-gated inwardly rectifying potassium channel KCNH2 (Homo sapiens, UniProt Q12809); experiment: Inhibition of hERG; assay type: toxicity
[8] = biological target: T1, A-type voltage-gated potassium channel KCND3 (Homo sapiens, UniProt Q9UK17); experiment: Inhibition of Kv4.3 (unknown origin)
T1 sequence (Q9UK17 whole entry): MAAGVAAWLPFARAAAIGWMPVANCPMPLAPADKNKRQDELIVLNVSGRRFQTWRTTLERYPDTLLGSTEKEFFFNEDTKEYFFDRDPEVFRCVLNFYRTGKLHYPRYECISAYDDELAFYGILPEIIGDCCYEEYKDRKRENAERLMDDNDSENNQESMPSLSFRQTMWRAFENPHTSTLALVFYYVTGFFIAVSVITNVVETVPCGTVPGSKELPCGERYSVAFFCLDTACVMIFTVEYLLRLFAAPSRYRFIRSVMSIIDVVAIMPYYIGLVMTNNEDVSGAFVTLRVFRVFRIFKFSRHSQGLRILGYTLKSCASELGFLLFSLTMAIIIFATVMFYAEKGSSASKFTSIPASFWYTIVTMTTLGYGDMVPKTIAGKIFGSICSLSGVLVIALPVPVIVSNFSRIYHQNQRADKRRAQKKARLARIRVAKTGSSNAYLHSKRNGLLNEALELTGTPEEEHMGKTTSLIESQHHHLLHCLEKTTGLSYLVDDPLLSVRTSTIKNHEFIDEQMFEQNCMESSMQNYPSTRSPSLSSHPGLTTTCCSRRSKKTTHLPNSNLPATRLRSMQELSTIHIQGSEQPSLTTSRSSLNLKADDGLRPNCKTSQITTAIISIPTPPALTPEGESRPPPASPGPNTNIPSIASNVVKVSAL

[9] = biological target: Voltage-dependent T-type calcium channel subunit alpha-1G (Homo sapiens, UniProt O43497); experiment: Inhibition of Cav3.1 (unknown origin)
Sequence of Voltage-dependent T-type calcium channel subunit alpha-1G (O43497 whole entry): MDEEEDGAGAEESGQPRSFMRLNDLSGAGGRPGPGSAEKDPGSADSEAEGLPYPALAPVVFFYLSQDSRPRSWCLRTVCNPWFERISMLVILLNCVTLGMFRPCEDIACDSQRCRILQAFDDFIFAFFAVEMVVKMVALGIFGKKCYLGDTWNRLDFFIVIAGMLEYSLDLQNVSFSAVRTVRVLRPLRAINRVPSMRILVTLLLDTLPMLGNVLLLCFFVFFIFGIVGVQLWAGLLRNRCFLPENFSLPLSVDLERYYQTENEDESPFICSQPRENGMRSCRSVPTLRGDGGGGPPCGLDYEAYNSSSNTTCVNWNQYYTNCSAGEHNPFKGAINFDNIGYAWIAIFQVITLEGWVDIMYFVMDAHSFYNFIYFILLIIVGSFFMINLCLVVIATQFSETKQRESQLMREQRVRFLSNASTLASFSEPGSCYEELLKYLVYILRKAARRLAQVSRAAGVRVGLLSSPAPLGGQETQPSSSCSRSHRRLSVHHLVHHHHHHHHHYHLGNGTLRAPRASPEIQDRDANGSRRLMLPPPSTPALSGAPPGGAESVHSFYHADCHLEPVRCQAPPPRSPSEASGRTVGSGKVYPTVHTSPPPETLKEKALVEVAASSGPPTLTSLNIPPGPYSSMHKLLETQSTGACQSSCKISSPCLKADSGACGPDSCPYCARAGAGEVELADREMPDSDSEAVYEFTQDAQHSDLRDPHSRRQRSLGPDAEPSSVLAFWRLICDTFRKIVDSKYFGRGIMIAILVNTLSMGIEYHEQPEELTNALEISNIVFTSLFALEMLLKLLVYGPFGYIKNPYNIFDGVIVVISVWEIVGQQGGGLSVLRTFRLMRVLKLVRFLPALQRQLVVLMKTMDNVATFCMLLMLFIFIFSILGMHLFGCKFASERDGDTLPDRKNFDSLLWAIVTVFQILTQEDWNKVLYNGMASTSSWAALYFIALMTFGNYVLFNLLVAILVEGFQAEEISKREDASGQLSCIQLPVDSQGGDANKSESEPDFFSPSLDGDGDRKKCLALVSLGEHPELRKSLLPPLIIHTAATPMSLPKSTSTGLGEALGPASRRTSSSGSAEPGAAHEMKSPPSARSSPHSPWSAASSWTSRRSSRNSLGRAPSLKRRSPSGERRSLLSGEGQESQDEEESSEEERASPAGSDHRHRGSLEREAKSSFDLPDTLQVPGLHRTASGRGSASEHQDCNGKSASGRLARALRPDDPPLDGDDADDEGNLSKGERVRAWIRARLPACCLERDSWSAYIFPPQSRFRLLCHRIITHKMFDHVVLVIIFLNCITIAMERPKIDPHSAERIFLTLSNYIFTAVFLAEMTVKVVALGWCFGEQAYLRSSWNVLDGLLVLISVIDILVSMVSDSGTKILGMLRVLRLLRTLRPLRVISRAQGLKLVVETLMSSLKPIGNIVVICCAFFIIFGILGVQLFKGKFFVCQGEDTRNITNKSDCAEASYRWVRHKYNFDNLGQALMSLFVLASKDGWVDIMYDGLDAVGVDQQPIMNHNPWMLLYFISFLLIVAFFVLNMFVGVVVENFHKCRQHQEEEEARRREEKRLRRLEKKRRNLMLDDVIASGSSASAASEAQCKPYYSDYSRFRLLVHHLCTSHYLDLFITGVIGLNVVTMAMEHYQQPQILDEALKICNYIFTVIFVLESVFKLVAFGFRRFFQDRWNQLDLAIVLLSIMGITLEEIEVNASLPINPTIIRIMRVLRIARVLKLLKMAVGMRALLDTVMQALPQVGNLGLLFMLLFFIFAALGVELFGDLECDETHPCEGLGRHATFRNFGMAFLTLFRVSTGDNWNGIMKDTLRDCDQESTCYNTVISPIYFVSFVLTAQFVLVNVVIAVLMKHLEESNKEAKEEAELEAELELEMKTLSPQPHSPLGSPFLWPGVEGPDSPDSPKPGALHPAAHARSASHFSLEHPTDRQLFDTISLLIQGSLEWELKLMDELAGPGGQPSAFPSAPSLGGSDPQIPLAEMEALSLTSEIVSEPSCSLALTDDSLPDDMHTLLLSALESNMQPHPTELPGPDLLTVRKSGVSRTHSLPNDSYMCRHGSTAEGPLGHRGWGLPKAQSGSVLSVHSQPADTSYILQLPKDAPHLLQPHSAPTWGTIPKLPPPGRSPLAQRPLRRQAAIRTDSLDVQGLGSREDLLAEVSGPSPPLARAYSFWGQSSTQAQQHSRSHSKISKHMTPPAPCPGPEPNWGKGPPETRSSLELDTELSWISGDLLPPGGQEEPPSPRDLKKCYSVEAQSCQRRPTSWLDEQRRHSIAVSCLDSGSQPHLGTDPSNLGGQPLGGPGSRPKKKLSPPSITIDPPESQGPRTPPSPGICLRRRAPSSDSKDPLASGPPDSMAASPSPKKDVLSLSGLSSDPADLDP

[10] = biological target: Sodium channel protein type 2 subunit alpha (Homo sapiens, UniProt Q99250); experiment: Inhibition of Nav1.2 (unknown origin)
[11] = biological target: Sodium channel protein type 5 subunit alpha (Homo sapiens, UniProt Q14524); experiment: Inhibition of Nav1.5 (unknown origin)
Sequence of Sodium channel protein type 5 subunit alpha (Q14524 whole entry): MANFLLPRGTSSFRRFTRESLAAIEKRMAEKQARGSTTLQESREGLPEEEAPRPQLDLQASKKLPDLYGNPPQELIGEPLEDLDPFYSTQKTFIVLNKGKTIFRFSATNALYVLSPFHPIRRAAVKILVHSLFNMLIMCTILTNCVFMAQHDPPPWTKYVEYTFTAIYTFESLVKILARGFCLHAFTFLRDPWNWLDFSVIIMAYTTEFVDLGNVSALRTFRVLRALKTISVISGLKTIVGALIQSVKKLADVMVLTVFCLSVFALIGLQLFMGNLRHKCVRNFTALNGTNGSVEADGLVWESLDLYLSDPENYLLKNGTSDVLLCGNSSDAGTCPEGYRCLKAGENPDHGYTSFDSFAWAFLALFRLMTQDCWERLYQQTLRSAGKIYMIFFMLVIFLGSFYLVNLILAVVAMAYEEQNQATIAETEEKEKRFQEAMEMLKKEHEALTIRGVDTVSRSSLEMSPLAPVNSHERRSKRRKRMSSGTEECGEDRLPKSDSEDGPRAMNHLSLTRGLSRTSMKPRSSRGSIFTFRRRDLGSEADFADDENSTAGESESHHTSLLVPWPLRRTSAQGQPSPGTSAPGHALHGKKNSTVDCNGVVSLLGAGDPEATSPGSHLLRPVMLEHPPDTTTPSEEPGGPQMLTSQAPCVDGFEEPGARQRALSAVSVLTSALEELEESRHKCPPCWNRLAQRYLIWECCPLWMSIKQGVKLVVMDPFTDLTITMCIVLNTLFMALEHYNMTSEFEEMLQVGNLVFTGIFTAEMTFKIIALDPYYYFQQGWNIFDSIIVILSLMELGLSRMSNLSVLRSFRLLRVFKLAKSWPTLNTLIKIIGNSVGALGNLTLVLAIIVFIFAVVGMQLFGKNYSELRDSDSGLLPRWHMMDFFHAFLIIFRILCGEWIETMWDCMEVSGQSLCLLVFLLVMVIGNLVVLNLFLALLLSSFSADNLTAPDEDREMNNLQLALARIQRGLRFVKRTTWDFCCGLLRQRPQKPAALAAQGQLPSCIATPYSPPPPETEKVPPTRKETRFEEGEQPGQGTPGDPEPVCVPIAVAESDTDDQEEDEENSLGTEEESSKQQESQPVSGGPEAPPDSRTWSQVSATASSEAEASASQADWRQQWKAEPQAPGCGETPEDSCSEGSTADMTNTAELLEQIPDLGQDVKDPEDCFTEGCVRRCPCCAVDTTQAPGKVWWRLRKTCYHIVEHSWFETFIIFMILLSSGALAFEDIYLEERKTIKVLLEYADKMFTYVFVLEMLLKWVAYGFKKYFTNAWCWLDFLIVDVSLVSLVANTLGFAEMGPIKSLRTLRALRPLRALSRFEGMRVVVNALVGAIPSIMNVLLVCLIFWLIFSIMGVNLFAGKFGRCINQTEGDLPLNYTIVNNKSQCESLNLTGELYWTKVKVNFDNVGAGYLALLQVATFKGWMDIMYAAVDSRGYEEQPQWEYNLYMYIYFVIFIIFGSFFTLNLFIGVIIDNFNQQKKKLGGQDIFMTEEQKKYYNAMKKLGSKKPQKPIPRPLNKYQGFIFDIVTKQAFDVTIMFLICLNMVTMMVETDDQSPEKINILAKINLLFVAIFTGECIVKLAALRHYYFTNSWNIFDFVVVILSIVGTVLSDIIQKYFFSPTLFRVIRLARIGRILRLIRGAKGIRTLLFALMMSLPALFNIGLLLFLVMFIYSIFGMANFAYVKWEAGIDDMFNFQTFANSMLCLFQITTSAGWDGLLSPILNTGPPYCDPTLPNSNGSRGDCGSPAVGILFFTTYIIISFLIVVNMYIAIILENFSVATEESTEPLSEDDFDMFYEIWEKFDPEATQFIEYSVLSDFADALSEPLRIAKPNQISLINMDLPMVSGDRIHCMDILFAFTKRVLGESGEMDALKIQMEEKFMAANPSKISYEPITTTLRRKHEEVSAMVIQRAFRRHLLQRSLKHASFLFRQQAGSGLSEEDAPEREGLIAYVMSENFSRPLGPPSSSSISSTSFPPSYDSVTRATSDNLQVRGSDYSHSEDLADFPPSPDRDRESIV

[12] = Metabolic stability in mouse kidney assessed as parent compound remaining measured after 4 hrs by UPLC-MS analysis; assay type: ADME, tissue-based; details: read-out: Stability
[13] = Metabolic stability in mouse lung assessed as parent compound remaining measured after 4 hrs by UPLC-MS analysis; assay type: ADME, tissue-based; details: mouse lung, read-out: Stability
[14] = Metabolic stability in mouse lung assessed as parent compound remaining measured after 1 hrs by UPLC-MS analysis; assay type: ADME, tissue-based; details: mouse lung, read-out: Stability
[15] = Metabolic stability in mouse kidney assessed as parent compound remaining measured after 1 hrs by UPLC-MS analysis; assay type: ADME, tissue-based; details: read-out: Stability
[16] = Metabolic stability in mouse lung assessed as M1 metabolite formation measured upto 4 hrs by UPLC-MS analysis; assay type: ADME, tissue-based
[17] = Metabolic stability in mouse kidney assessed as M1 metabolite formation measured upto 4 hrs by UPLC-MS analysis; assay type: ADME, tissue-based
[18] = Metabolic stability in mouse kidney assessed as M2 metabolite formation measured upto 4 hrs by UPLC-MS analysis; assay type: ADME, tissue-based
Escherichia coli [19] = experiment: Antibacterial activity against Escherichia coli ATCC 35218 assessed as reduction in microbial growth incubated for 20 to 22 hrs by CLSI based analysis; assay type: functional; details: time 20-22 hrs
Klebsiella pneumoniae [20] = experiment: Antibacterial activity against Klebsiella pneumoniae ATCC 13883 assessed as reduction in microbial growth incubated for 20 to 22 hrs by CLSI based analysis; assay type: functional; details: time 20-22 hrs
Acinetobacter baumannii [21] = experiment: Antibacterial activity against Acinetobacter baumannii ATCC 19606 assessed as reduction in microbial growth incubated for 20 to 22 hrs by CLSI based analysis; assay type: functional; details: time 20-22 hrs
Escherichia coli [22] = experiment: Antibacterial activity against Escherichia coli ATCC 35218 infected in Swiss albino mouse model of Septicaemia infection assessed as log reduction in Septicaemia in blood at 20 mg/kg , iv preincubated for 4 hrs followed by bacterial infection and measured after 4 hrs post infection; assay type: functional; details: time 8 hrs
Escherichia coli [23] = experiment: Antibacterial activity against Escherichia coli D22 assessed as reduction in microbial growth incubated for 20 to 22 hrs by CLSI based analysis; assay type: functional; details: time 20-22 hrs
Escherichia coli [24] = experiment: Antibacterial activity against Escherichia coli D21 assessed as reduction in microbial growth incubated for 20 to 22 hrs by CLSI based analysis; assay type: functional; details: time 20-22 hrs
Escherichia coli [25] = experiment: Antibacterial activity against wild type Escherichia coli ATCC 35218 assessed as reduction in microbial growth incubated for 20 to 22 hrs by CLSI based analysis; assay type: functional; details: time 20-22 hrs
Escherichia coli [26] = experiment: Antibacterial activity against Escherichia coli ATCC 35218 harboring SbmA assessed as reduction in microbial growth incubated for 20 to 22 hrs by CLSI based analysis; assay type: functional; details: time 20-22 hrs
Klebsiella pneumoniae [27] = experiment: Antibacterial activity against wild type Klebsiella pneumoniae ATCC 13883 assessed as reduction in microbial growth incubated for 20 to 22 hrs by CLSI based analysis; assay type: functional; details: time 20-22 hrs
Klebsiella pneumoniae [28] = experiment: Antibacterial activity against Klebsiella pneumoniae ATCC 13883 harboring SbmA assessed as reduction in microbial growth incubated for 20 to 22 hrs by CLSI based analysis; assay type: functional; details: time 20-22 hrs
Acinetobacter baumannii [29] = experiment: Antibacterial activity against wild type Acinetobacter baumannii ATCC 19606 assessed as reduction in microbial growth incubated for 20 to 22 hrs by CLSI based analysis; assay type: functional; details: time 20-22 hrs

Compound: CO[C@@H](CNC(=O)[C@H](NC(=O)[C@H](O)[C@H](C)O)[C@H](O)c1cncn1C)[C@H](O)[C@H](O)C(=O)N(C)[C@@H](Cc1ccccc1)C(=O)NCC(=O)N[C@H](C(=O)N[C@@H](CO)C(=O)N[C@H](C(=O)N[C@@H](CC(C)C)C(=O)N[C@@H](CO)C(=O)O)C(C)(C)O)C(C)(C)O ({Butanoyl(2R-OH,3S-OH)}-[dHis(βS-OH,π-Me)][Ava(2S,3R-(OH)2,4S-OMe)][NMeF]G[Val(3-OH)]S[Val(3-OH)]LS-OH)
- MIC (Escherichia coli [1]): 1 µg/mL (≈ 0.844 µM)
- MIC (Klebsiella pneumoniae [2]): ≥ 64 µg/mL
- MIC (Pseudomonas aeruginosa): > 64 µg/mL
- Activity (Escherichia coli [3]): <=60%
- logD [4]: 0.68
- solubility [5]: 2800 µg/mL (≈ 2360 µM)
- Papp [6]: < 10 ×10⁻⁶ cm/s
- inhibition at 30 µM (HepG2): 0%
- IC50 [7]: > 30 µM
- IC50 [8]: > 30 µM
- IC50 [9]: > 30 µM
- IC50 [10]: > 30 µM
- IC50 [11]: > 30 µM
- remaining at 4 h [12]: 6%
- remaining at 4 h [13]: 1%
- remaining at 1 h [14]: 7%
- remaining at 1 h [15]: 41%
- Drug metabolism [16]: Metabolite_Detected
- Drug metabolism [17]: Metabolite_Detected
- Drug metabolism [18]: Metabolite_Detected
- MIC (Escherichia coli [19]): 4 µg/mL
- MIC (Klebsiella pneumoniae [20]): 16 µg/mL
- MIC (Acinetobacter baumannii [21]): > 32 µg/mL
- Activity (Escherichia coli [22]): -3.3 log10CFU
- MIC (Escherichia coli [23]): 0.25 µg/mL
- MIC (Escherichia coli [24]): 4 µg/mL
- MIC (Escherichia coli [25]): 4 µg/mL
- MIC (Escherichia coli [26]): 4 µg/mL
- MIC (Klebsiella pneumoniae [27]): 16 µg/mL
- MIC (Klebsiella pneumoniae [28]): 16 µg/mL
- MIC (Acinetobacter baumannii [29]): > 32 µg/mL
